Experimental data reported in EP4635499A1, “PHARMACEUTICAL COMPOSITION FOR VASCULAR MALFORMATIONS AND METHOD FOR CURING VASCULAR MALFORMATIONS” (ARTham Therapeutics Inc., priority 2022, dated 2024).
Values joined by “and” are separate entries in the source; they are usually repeats but may differ in a detail not shown here. Equal entries are not always repeated.

How the values were obtained:
[1] = test system: vascular malformation patients; test: Randomized double-blind study in vascular malformation patients: response rate and volume change of target lesion measured by MRI; type: in vivo, human; settings: oral; for RESPONSE RATE AT 12 WEEKS OF ADMINISTRATION: once a day after breakfast, week 12, response = complete + partial (at least 20% reduction in target lesion volume, MRI); for VOLUME CHANGE (AVERAGE VALUE) OF TARGET LESION AT 24 WEEKS OF ADMINISTRATION / RESPONSE RATE AT 24 WEEKS OF ADMINISTRATION: once a day, week 24; for VOLUME CHANGE (AVERAGE VALUE) OF TARGET LESION AT 24 WEEKS OF ADMINISTRATION: MRI; for RESPONSE RATE AT 24 WEEKS OF ADMINISTRATION: primary endpoint
Procedure: The efficacy was confirmed in a randomized double-blind study in vascular malformation patients. A serabelisib-containing dry syrup (contained 200 mg of serabelisib in 1 g) was administered orally for 24 weeks once a day after breakfast at an adult serabelisib dose of 50 mg or an adult serabelisib dose of 100 mg. For the pediatric patients, the administered dose was made the dose calculated based on body surface area conversion according to the Crawford formula for each of the adult doses. The primary endpoint was the response rate based on the volume change (measured by MRI) of the target lesion at the end of 24 weeks of administration. In the analysis of the primary endpoint for evaluating efficacy, a complete response was defined as the disappearance of the target lesion and a partial response was defined as an at least 20% reduction in the volume of the target lesion in comparison to that at the time of the screening test. The 95% confidence interval for the response rate (the sum of complete responses and partial responses as a percentage of the total) based on the change in target lesion volume (measured by MRI) between prior to administration and the time point of completion of 24 weeks of administration, was calculated using the Clopper-Pearson method, and whether its lower limit exceeded 12.5% was checked. For the secondary endpoint, the […] based on the change in target lesion volume (measured by MRI) at the time point of completion of 12 weeks of administration was evaluated. With respect to blood vessel malformation lesions, cystic components of lymphatic malformations, lymphedema, lymph fluid, and lymphorrhea (including also intraosseous, extraosseous, and subcutaneous), which are components of vascular malformations, the target lesion detected using the T2 fat-suppressed image was selected for the target lesion and its volume was measured.

[2] = test system: vascular malformation patients; test: Randomized double-blind study in vascular malformation patients: pain severity by Visual Analogue Scale (VAS); type: in vivo, human; settings: for VAS AVERAGE VALUE / VAS MEDIAN VALUE: scale 0-100
Procedure: The efficacy was confirmed in a randomized double-blind study in vascular malformation patients. A serabelisib-containing dry syrup (contained 200 mg of serabelisib in 1 g) was administered orally for 24 weeks once a day after breakfast at an adult serabelisib dose of 50 mg or an adult serabelisib dose of 100 mg. For the pediatric patients, the administered dose was made the dose calculated based on body surface area conversion according to the Crawford formula for each of the adult doses. The primary endpoint was the response rate based on the volume change (measured by MRI) of the target lesion at the end of 24 weeks of administration. The severity of pain at the baseline, week 4 of administration, week 12 of administration, and week 24 of administration was evaluated (using VAS). A 10-cm straight line was drawn on the recording paper; the left end was defined as 0 and the right end was defined as 100; "0" was assigned to a condition of "pain completely absent" and "100" was assigned to a condition of "the worst pain, or a more severe pain cannot be imagined"; and inquiry was made as to where the current pain level was on the straight line and this was recorded. It was also recorded when the information about a subject was provided by someone else who was not the subject. In addition, the subjects were classified into under 15 years and 15 years and over for the age when consent was obtained, and recording paper appropriate for each age group was used.

[3] = test system: vascular malformation patients; test: Randomized double-blind study in vascular malformation patients: hyperglycemia side effect diagnosed by a physician; type: in vivo, human; settings: 50 mg or 100 mg serabelisib once a day for 24 weeks; 35 patients; diagnosed by a physician based on test values such as a blood glucose value
From the text: According to an embodiment, the side effects are hyperglycemia and hypercreatinemia. According to an embodiment, the side effect is hyperglycemia. In the present Description, "hyperglycemia" is an adverse event (side effect) associated with the pharmacological action of a drug and is diagnosed by a physician based on test values such as the blood glucose level.
The efficacy was confirmed in a randomized double-blind study in vascular malformation patients. A serabelisib-containing dry syrup (contained 200 mg of serabelisib in 1 g) was administered orally for 24 weeks once a day after breakfast at an adult serabelisib dose of 50 mg or an adult serabelisib dose of 100 mg. For the pediatric patients, the administered dose was made the dose calculated based on body surface area conversion according to the Crawford formula for each of the adult doses. The primary endpoint was the response rate based on the volume change (measured by MRI) of the target lesion at the end of 24 weeks of administration.
• (1) The study is discontinued when a test value of 140 mg/dL or higher is observed for the blood glucose level (fasting) in the clinical test performed at each visit. • (2) The study is discontinued when the clinical tests performed at each visit meets all of the following criteria stipulated for each age group.

[4] = existing therapeutic agents for vascular malformations; NPL 2, NPL 3; cited from earlier work

Compound: Nc1nc2cc(-c3ccc4ncc(C(=O)N5CCOCC5)n4c3)ccc2o1 [ART-001, serabelisib]
- RESPONSE RATE AT 12 WEEKS OF ADMINISTRATION ([1]; 50 mg serabelisib (adult dose) as dry syrup, 17 subjects): 0% (0)
- VOLUME CHANGE (AVERAGE VALUE) OF TARGET LESION AT 24 WEEKS OF ADMINISTRATION ([1]; 50 mg serabelisib): -2.3%
- RESPONSE RATE AT 24 WEEKS OF ADMINISTRATION ([1]; 50 mg serabelisib, 17 subjects, 95% confidence interval 10.3% - 56.0% (Clopper-Pearson)): 29.4% (6) and 29.4% (5)
- RESPONSE RATE AT 24 WEEKS OF ADMINISTRATION ([1]; 50 mg serabelisib, 17 subjects, 95% confidence interval 10.3% - 56.0% (Clopper-Pearson), listed as serabelisib): 29.4%
- RESPONSE RATE AT 12 WEEKS OF ADMINISTRATION ([1]; 100 mg serabelisib (adult dose) as dry syrup, 18 subjects): 16.7% (3)
- VOLUME CHANGE (AVERAGE VALUE) OF TARGET LESION AT 24 WEEKS OF ADMINISTRATION ([1]; 100 mg serabelisib): -12.6%
- RESPONSE RATE AT 24 WEEKS OF ADMINISTRATION ([1]; 100 mg serabelisib, 18 subjects, 95% confidence interval 13.3% - 59.0% (Clopper-Pearson)): 33.3% (6)
- RESPONSE RATE AT 24 WEEKS OF ADMINISTRATION ([1]; 100 mg serabelisib, 18 subjects, 95% confidence interval 13.3% - 59.0% (Clopper-Pearson), listed as serabelisib): 33.3%
- VAS AVERAGE VALUE ([2]; 50 mg administration group, WEEK 4 OF ADMINISTRATION, baseline average 29.4): 20.6
- VAS MEDIAN VALUE ([2]; 50 mg administration group, WEEK 4 OF ADMINISTRATION, baseline median 16.0): 6.0
- VAS AVERAGE VALUE ([2]; 50 mg administration group, WEEK 12 OF ADMINISTRATION, baseline average 29.4): 21.2
- VAS AVERAGE VALUE ([2]; 50 mg administration group, WEEK 24 OF ADMINISTRATION, baseline average 29.4): 16.1
- VAS MEDIAN VALUE ([2]; 50 mg administration group, WEEK 24 OF ADMINISTRATION, baseline median 16.0): 4.0
- VAS AVERAGE VALUE ([2]; 100 mg administration group, WEEK 4 OF ADMINISTRATION, baseline average 24.6): 15.8
- VAS MEDIAN VALUE ([2]; 100 mg administration group, WEEK 4 OF ADMINISTRATION, baseline median 20.0): 2.0
- VAS AVERAGE VALUE ([2]; 100 mg administration group, WEEK 12 OF ADMINISTRATION, baseline average 24.6): 15.7
- VAS MEDIAN VALUE ([2]; 100 mg administration group, WEEK 12 OF ADMINISTRATION, baseline median 20.0): 2.0
- VAS AVERAGE VALUE ([2]; 100 mg administration group, WEEK 24 OF ADMINISTRATION, baseline average 24.6): 12.4
- VAS MEDIAN VALUE ([2]; 100 mg administration group, WEEK 24 OF ADMINISTRATION, baseline median 20.0): 8.0
- average values and median values of the VAS after the treatment ([2]; both the 50 mg administration group and the 100 mg administration group, versus baseline): reduced
- Hyperglycemia side effect [3]: no subject exhibited an event that was diagnosed as hyperglycemia

Compound: Cc1nc(NC(=O)N2CCC[C@H]2C(N)=O)sc1-c1ccnc(C(C)(C)C(F)(F)F)c1 [Alpelisib, alpelisib]
- known side effects [4]: hyperglycemia

Compound: CO[C@H]1C[C@@H]2CC[C@@H](C)[C@@](O)(O2)C(=O)C(=O)N2CCCC[C@H]2C(=O)O[C@H]([C@H](C)C[C@@H]2CC[C@@H](O)[C@H](OC)C2)CC(=O)[C@H](C)/C=C(\C)[C@@H](O)[C@@H](OC)C(=O)[C@H](C)C[C@H](C)/C=C/C=C/C=C/1C [Sirolimus, sirolimus]
- known side effects [4]: immunosuppression, hyperglycemia (unknown frequency)
